# Measured values from patent publication US12403137B2, “Compounds and methods of use” (Tango Therapeutics, Inc., priority 2019, dated 2025).
# pIC50: −log10 of the molar value.
# Experiments:
# [1] = system: HAP1 MTAP-intact cell line; test: SDMA in-cell western assay, HAP1 MTAP-intact; assay type: cell-based; settings: Homo sapiens
# Procedure, shortened: (§1)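 IC50 values come from an SDMA in-cell western run in isogenic HAP1 cells, either MTAP-null or expressing endogenous MTAP. The intact-to-deleted IC50 ratio is used to score MTAP selectivity.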
# [2] = biological target: T1, PRMT5 (Homo sapiens, UniProt O14744); test: PRMT5 inhibition assay with SAM as cofactor; assay type: biochemical; settings: against PRMT5 in the presence of SAM as cofactor
# T1 construct: purchased Viva (custom protein)
# T1 sequence (O14744 whole entry): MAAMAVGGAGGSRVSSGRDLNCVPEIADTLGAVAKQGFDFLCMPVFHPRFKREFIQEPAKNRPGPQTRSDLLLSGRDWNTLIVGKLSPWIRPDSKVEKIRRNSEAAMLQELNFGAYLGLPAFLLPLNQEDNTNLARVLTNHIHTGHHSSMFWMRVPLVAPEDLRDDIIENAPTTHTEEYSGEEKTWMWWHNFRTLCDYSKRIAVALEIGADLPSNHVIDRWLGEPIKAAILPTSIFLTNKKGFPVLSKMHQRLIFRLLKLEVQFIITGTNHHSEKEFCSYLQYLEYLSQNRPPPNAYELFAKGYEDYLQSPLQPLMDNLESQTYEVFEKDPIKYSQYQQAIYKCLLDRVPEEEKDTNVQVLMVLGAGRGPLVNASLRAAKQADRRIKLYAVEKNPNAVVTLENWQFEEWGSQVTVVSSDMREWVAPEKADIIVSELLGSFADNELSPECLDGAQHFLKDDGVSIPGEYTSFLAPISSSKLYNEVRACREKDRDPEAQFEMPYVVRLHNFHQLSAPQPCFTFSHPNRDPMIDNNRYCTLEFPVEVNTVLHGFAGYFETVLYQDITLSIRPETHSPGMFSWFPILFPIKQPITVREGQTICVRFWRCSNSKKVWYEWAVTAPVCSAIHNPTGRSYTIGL
# T1 sequence (Q9BQA1 whole entry partner): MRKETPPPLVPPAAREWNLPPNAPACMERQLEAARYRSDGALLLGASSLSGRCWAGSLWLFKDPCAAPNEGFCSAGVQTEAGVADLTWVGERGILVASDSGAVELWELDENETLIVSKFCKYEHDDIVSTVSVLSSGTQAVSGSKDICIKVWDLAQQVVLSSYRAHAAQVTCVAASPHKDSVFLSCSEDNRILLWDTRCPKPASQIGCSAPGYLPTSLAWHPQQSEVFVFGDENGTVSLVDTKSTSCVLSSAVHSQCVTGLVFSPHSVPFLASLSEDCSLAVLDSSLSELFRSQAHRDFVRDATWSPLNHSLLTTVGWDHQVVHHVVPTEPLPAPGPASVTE
# From the text: (§2) The Ki values can be calculated from the IC50 values as described in the Examples section. As detailed in the Examples section, for the assay performed in the presence of SAM, IC50=Ki×1.5 (Ki=IC50/1.5). For the assay performed in the presence of MTA, IC50=Ki×13.5 (Ki=IC50/13.5). Column 6 indicates the ratio between the Ki of compounds in the presence of SAM and the Ki of compounds in the presence of MTA
# [3] = biological target: T1, PRMT5; test: PRMT5 inhibition assay with MTA as cofactor; assay type: biochemical; settings: for pIC50: against PRMT5 with MTA as cofactor; for SAM/MTA Ratio: ratio of Ki in the presence of SAM to Ki in the presence of MTA, Ki=IC50/1.5 (SAM), Ki=IC50/13.5 (MTA)
# From the text: as §2
# [4] = biological target: T1, PRMT5; test: PRMT5 inhibition assay with no cofactor; assay type: biochemical; settings: against PRMT5 with no cofactor; read-out: No Co-factor IC50
# [5] = system: HAP1 MTAP-deleted cell line; test: SDMA in-cell western assay, HAP1 MTAP-deleted; assay type: cell-based; settings: for pIC50: Homo sapiens, HAP1 MTAP-deleted (MTAP-null) cell line; for MTAP Intact/Deleted Ratio: IC50 ratio HAP1 MTAP-intact / HAP1 MTAP-deleted, >=3 fold considered MTAP-selective
# Procedure, shortened: as §1
Compound,pIC50 [1],pIC50 [2],pIC50 [3],SAM/MTA Ratio [3],pIC50 [4],pIC50 [5],MTAP Intact/Deleted Ratio [5]
"Cc1ncoc1COc1ccc2c(c1)CN[C@H]([C@H](O)CNC(=O)c1ccnc(Nc3cccnc3)c1)C2 [Compound 34, N—((R)-2-hydroxy-2-((S)-7-((4-methyloxazol-5-yl)methoxy)-1,2,3,4-tetrahydroisoquinolin-3-yl)ethyl)-2-(pyridin-3-ylamino)isonicotinamide]",≤ 5.00,6.30 to 7.30,> 7.30,A (a Ki ratio greater than or equal to 10 fold between the Ki in the presence of SAM and the Ki in the presence of MTA),6.30 to 7.30,5.00 to 6.00,B* (an IC50 ratio greater than or equal to 3 fold but lower than 10 fold between the IC50 in the HAP1 MTAP-intact cell line and the HAP1 MTAP-deleted cell line)
"Cc1ncoc1COc1ccc2c(c1)CN[C@H]([C@H](O)CNC(=O)c1cc(NC3CCC3)ccn1)C2 [Compound 35, 4-(cyclobutylamino)-N—((R)-2-hydroxy-2-((S)-7-((4-methyloxazol-5-yl)methoxy)-1,2,3,4-tetrahydroisoquinolin-3-yl)ethyl)picolinamide]",5.00 to 6.00,6.30 to 7.30,> 7.30,A (a Ki ratio greater than or equal to 10 fold between the Ki in the presence of SAM and the Ki in the presence of MTA),5.30 to 6.30,> 6.00,A* (an IC50 ratio greater than or equal to 10 fold between the IC50 in the HAP1 MTAP-intact cell line and the HAP1 MTAP-deleted cell line)
"COc1cnc(NC2CCC2)cc1C(=O)NC[C@@H](O)[C@@H]1Cc2ccc(OCc3ocnc3C)cc2CN1 [Compound 36, 2-(cyclobutylamino)-N—((R)-2-hydroxy-2-((S)-7-((4-methyloxazol-5-yl)methoxy)-1,2,3,4-tetrahydroisoquinolin-3-yl)ethyl)-5-methoxyisonicotinamide]",5.00 to 6.00,6.30 to 7.30,> 7.30,A (a Ki ratio greater than or equal to 10 fold between the Ki in the presence of SAM and the Ki in the presence of MTA),5.30 to 6.30,> 6.00,B* (an IC50 ratio greater than or equal to 3 fold but lower than 10 fold between the IC50 in the HAP1 MTAP-intact cell line and the HAP1 MTAP-deleted cell line)
"CCC(=O)N1CCN(c2cc(C(=O)NC[C@@H](O)[C@@H]3Cc4ccc(OCc5ocnc5C)cc4CN3)cc(NC3CCC3)n2)CC1 [Compound 39, 2-(cyclobutylamino)-N—((R)-2-hydroxy-2-((S)-7-((4-methyloxazol-5-yl)methoxy)-1,2,3,4-tetrahydroisoquinolin-3-yl)ethyl)-6-(4-propionylpiperazin-1-yl)isonicotinamide]",5.00 to 6.00,6.30 to 7.30,> 7.30,A (a Ki ratio greater than or equal to 10 fold between the Ki in the presence of SAM and the Ki in the presence of MTA),6.30 to 7.30,> 6.00,A* (an IC50 ratio greater than or equal to 10 fold between the IC50 in the HAP1 MTAP-intact cell line and the HAP1 MTAP-deleted cell line)
"CC(=O)N1CCC(Nc2cc(C(=O)NC[C@@H](O)[C@@H]3Cc4ccc(OCc5ocnc5C)cc4CN3)cc(N3CCCCC3)n2)CC1 [Compound 40, 2-[(1-acetyl-4-piperidyl)amino]-N-[(2R)-2-hydroxy-2-[(3S)-7-[(4-methyloxazol-5-yl)methoxy]-1,2,3,4-tetrahydroisoquinolin-3-yl]ethyl]-6-(1-piperidyl)pyridine-4-carboxamide]",5.00 to 6.00,6.30 to 7.30,> 7.30,A (a Ki ratio greater than or equal to 10 fold between the Ki in the presence of SAM and the Ki in the presence of MTA),6.30 to 7.30,> 6.00,A* (an IC50 ratio greater than or equal to 10 fold between the IC50 in the HAP1 MTAP-intact cell line and the HAP1 MTAP-deleted cell line)
"CC(=O)N1CCC(Nc2cc(C(=O)NC[C@@H](O)[C@@H]3Cc4ccc(OCc5ocnc5C)cc4CN3)ncn2)CC1 [Compound 41, 6-[(1-acetyl-4-piperidyl)amino]-N-[(2R)-2-hydroxy-2-[(3S)-7-[(4-methyloxazol-5-yl)methoxy]-1,2,3,4-tetrahydroisoquinolin-3-yl]ethyl]pyrimidine-4-carboxamide]",≤ 5.00,6.30 to 7.30,> 7.30,A (a Ki ratio greater than or equal to 10 fold between the Ki in the presence of SAM and the Ki in the presence of MTA),5.30 to 6.30,5.00 to 6.00,B* (an IC50 ratio greater than or equal to 3 fold but lower than 10 fold between the IC50 in the HAP1 MTAP-intact cell line and the HAP1 MTAP-deleted cell line)
"Cc1ncoc1COc1ccc2c(c1)CN[C@H]([C@H](O)CNC(=O)c1cc(NC3CC4(CCC4)C3)nc(N3CCN(C(=O)C4CC4)CC3)c1)C2 [Compound 42, 2-[4-(cyclopropanecarbonyl)piperazin-1-yl]-N-[(2R)-2-hydroxy-2-[(3S)-7-[(4-methyloxazol-5-yl)methoxy]-1,2,3,4-tetrahydroisoquinolin-3-yl]ethyl]-6-(spiro[3.3]heptan-2-ylamino)pyridine-4-carboxamide]",> 6.00,6.30 to 7.30,6.30 to 7.30,A (a Ki ratio greater than or equal to 10 fold between the Ki in the presence of SAM and the Ki in the presence of MTA),6.30 to 7.30,> 6.00,A* (an IC50 ratio greater than or equal to 10 fold between the IC50 in the HAP1 MTAP-intact cell line and the HAP1 MTAP-deleted cell line)
"Cc1ncoc1COc1ccc2c(c1)CN[C@H]([C@H](O)CNC(=O)c1cc(NC3CC4(CCC4)C3)ncn1)C2 [Compound 43, N-[(2R)-2-hydroxy-2-[(3S)-7-[(4-methyloxazol-5-yl)methoxy]-1,2,3,4-tetrahydroisoquinolin-3-yl]ethyl]-6-(spiro[3.3]heptan-2-ylamino)pyrimidine-4-carboxamide]",5.00 to 6.00,6.30 to 7.30,> 7.30,A (a Ki ratio greater than or equal to 10 fold between the Ki in the presence of SAM and the Ki in the presence of MTA),6.30 to 7.30,> 6.00,A* (an IC50 ratio greater than or equal to 10 fold between the IC50 in the HAP1 MTAP-intact cell line and the HAP1 MTAP-deleted cell line)
"CC(=O)N1CCC(Nc2cc(C(=O)NC[C@@H](O)[C@@H]3Cc4ccc(OCc5ocnc5C)cc4CN3)ccn2)CC1 [Compound 44, 2-[(1-acetyl-4-piperidyl)amino]-N-[(2R)-2-hydroxy-2-[(3S)-7-[(4-methyloxazol-5-yl)methoxy]-1,2,3,4-tetrahydroisoquinolin-3-yl]ethyl]pyridine-4-carboxamide]",≤ 5.00,6.30 to 7.30,> 7.30,A (a Ki ratio greater than or equal to 10 fold between the Ki in the presence of SAM and the Ki in the presence of MTA),6.30 to 7.30,5.00 to 6.00,B* (an IC50 ratio greater than or equal to 3 fold but lower than 10 fold between the IC50 in the HAP1 MTAP-intact cell line and the HAP1 MTAP-deleted cell line)
"CC(=O)N1CC(Nc2cc(C(=O)NC[C@@H](O)[C@@H]3Cc4ccc(OCc5ocnc5C)cc4CN3)cc(N3CCCCC3)n2)C1 [Compound 45, 2-[(1-acetylazetidin-3-yl)amino]-N-[(2R)-2-hydroxy-2-[(3S)-7-[(4-methyloxazol-5-yl)methoxy]-1,2,3,4-tetrahydroisoquinolin-3-yl]ethyl]-6-(1-piperidyl)pyridine-4-carboxamide]",≤ 5.00,6.30 to 7.30,> 7.30,A (a Ki ratio greater than or equal to 10 fold between the Ki in the presence of SAM and the Ki in the presence of MTA),6.30 to 7.30,> 6.00,A* (an IC50 ratio greater than or equal to 10 fold between the IC50 in the HAP1 MTAP-intact cell line and the HAP1 MTAP-deleted cell line)
"Cc1ncoc1COc1ccc2c(c1)CN[C@H]([C@H](O)CNC(=O)c1ccnc(NC3CC4(CCC4)C3)c1)C2 [Compound 46, N-[(2R)-2-hydroxy-2-[(3S)-7-[(4-methyloxazol-5-yl)methoxy]-1,2,3,4-tetrahydroisoquinolin-3-yl]ethyl]-2-(spiro[3.3]heptan-2-ylamino)pyridine-4-carboxamide]",> 6.00,6.30 to 7.30,> 7.30,A (a Ki ratio greater than or equal to 10 fold between the Ki in the presence of SAM and the Ki in the presence of MTA),6.30 to 7.30,> 6.00,B* (an IC50 ratio greater than or equal to 3 fold but lower than 10 fold between the IC50 in the HAP1 MTAP-intact cell line and the HAP1 MTAP-deleted cell line)
